Converted amounts (≈) assume the structure as drawn.
Legend:
MCF7 [1] = test: Anticancer activity against human MCF7 cells assessed as inhibition of cell proliferation; format: functional, cell-based
KB = test: Anticancer activity against human KB cells assessed as inhibition of cell proliferation; format: functional, cell-based
[2] = Anticancer activity against human Panel (56 tumour cell lines) at 10 uM relative to control; format: functional
[3] = test system: Panel NCI-60 (60 carcinoma cell lines); test: Growth inhibition of human Panel NCI-60 (60 carcinoma cell lines) cells; format: functional
MCF7 [4] = test: Cytotoxicity against human MCF7 cells assessed as reduction in cell growth; format: functional, cell-based
WI-38 = test: Cytotoxicity against human WI-38 cells assessed as reduction in cell growth; format: functional, cell-based
HeLa [5] = test: Cytotoxicity against human HeLa cells assessed as reduction in cell viability; format: functional, cell-based
MCF7 [6] = test: Cytotoxicity against human MCF7 cells assessed as reduction in cell viability; format: functional, cell-based
[7] = Cytotoxicity against HEK293T cells incubated for 72 hrs by MTT assay; format: toxicity, cell-based, HEK-293T; details: human
MCF7 [8] = test: Cytotoxicity against human MCF7 cells incubated for 72 hrs by MTT assay; format: functional, cell-based; details: MCF7, 72 h
A549 [9] = test: Cytotoxicity against human A549 cells incubated for 72 hrs by MTT assay; format: functional, cell-based; details: A549, 72 h
[10] = Cytotoxicity against human VA13 cells incubated for 72 hrs by MTT assay; format: toxicity, cell-based; details: VA13 (WI-38 VA13) cells
MDA-MB-231 [11] = test: Antiproliferative activity against human MDA-MB-231 cells by MTT assay; format: functional, cell-based
MCF7 [12] = test: Growth inhibition of human MCF7 cells assessed as reduction in cell viability by SRB assay; format: functional
COLO 205 = test: Growth inhibition of human COLO 205 cells assessed as reduction in cell viability by SRB assay; format: functional
PC-3 = test: Growth inhibition of human PC-3 cells assessed as reduction in cell viability by SRB assay; format: functional
K562 = test: Antiproliferative activity against human K562 cells measured upto 72 hrs by microscopy based analysis; format: functional, cell-based; details: K562, 72 h
U-937 = test: Antiproliferative activity against human U-937 cells measured upto 72 hrs by microscopy based analysis; format: functional, cell-based; details: U-937, 72 h
HepG2 [13] = test: Cytotoxicity against human HepG2 cells incubated overnight by MTT assay; format: functional, cell-based
MCF7 [14] = test: Cytotoxicity against human MCF7 cells incubated overnight by MTT assay; format: functional, cell-based
HCT-116 [15] = test: Cytotoxicity against human HCT-116 cells incubated overnight by MTT assay; format: functional, cell-based
Caco-2 = test: Antiproliferative activity against human Caco-2 cells incubated for 72 hrs by MTT assay; format: functional, cell-based; details: Caco-2, 72 h
HCT-116 [16] = test: Antiproliferative activity against human HCT-116 cells incubated for 72 hrs by MTT assay; format: functional, cell-based; details: HCT-116, 72 h
Jurkat = test: Antiproliferative activity against human Jurkat cells incubated for 72 hrs by MTT assay; format: functional, cell-based
MCF7 [17] = test: Antiproliferative activity against human MCF7 cells incubated for 72 hrs by MTT assay; format: functional, cell-based; details: MCF7, 72 h
MDA-MB-231 [18] = test: Antiproliferative activity against human MDA-MB-231 cells incubated for 72 hrs by MTT assay; format: functional, cell-based; details: MDA-MB-231, 72 h
HeLa [19] = test: Antiproliferative activity against human HeLa cells incubated for 72 hrs by MTT assay; format: functional, cell-based
CCRF-CEM = test: Antiproliferative activity against human CEM cells incubated for 72 hrs by MTT assay; format: functional, cell-based
A549 [20] = test: Antiproliferative activity against human A549 cells incubated for 72 hrs by MTT assay; format: functional, cell-based; details: A549, 72 h
MCF7 [21] = test: Anticancer activity against human MCF7 cells assessed as reduction in cell viability; format: functional, cell-based
HepG2 [22] = test: Anticancer activity against human HepG2 cells assessed as reduction in cell viability; format: functional, cell-based
MCF7 [23] = test: Antiproliferative activity against human MCF7 cells assessed as inhibition of cell growth; format: functional, cell-based
A2780 = test: Antiproliferative activity against human A2780 cells assessed as inhibition of cell growth; format: functional, cell-based
HT-29 = test: Antiproliferative activity against human HT-29 cells assessed as inhibition of cell growth; format: functional, cell-based
HeLa [24] = test: Anticancer activity against human HeLa cells measured after 48 hrs by Sulforhodamine B assay; format: functional, cell-based
HepG2 [25] = test: Anticancer activity against human HepG2 cells measured after 48 hrs by Sulforhodamine B assay; format: functional, cell-based; details: HepG2, 48 h
T47D = test: Anticancer activity against human T47D cells measured after 48 hrs by Sulforhodamine B assay; format: functional, cell-based
MCF7 [26] = test: Anticancer activity against human MCF7 cells measured after 48 hrs by Sulforhodamine B assay; format: functional, cell-based; details: MCF7, 48 h
HCT-116 [27] = test: Anticancer activity against human HCT-116 cells measured after 48 hrs by Sulforhodamine B assay; format: functional, cell-based; details: HCT-116, 48 h
HeLa [28] = test: Anticancer activity against human HeLa cells assessed as inhibition of cell viability; format: functional, cell-based
[29] = Anticancer activity against […] 3T3 cells; format: functional, cell-based; details: NIH3T3

O=C1NC(=O)C2(Cc3ccccc3N3CCSCC32)C(=O)N1 (stereo unspecified)
IC50 (MCF7 [1]): 90.2 µM | IC50 (KB): 49.8 µM

CC(C)(C)OC(=O)N1CCC2(CC1)NC(=O)c1ccccc1N2
inhibition at 10 µM [2]: 100%

C1=CC2=CC3CCCC4=Cc5ccccc5OC43OC2C=C1 (stereo unspecified)
GI50 [3]: < 10 µM

CN1N=C(c2ccc(Cl)c(Cl)c2)C2C(CSC23CCCN3CCOCC(=O)NN)C1=O (stereo unspecified)
IC50 (MCF7 [4]): 7.72 µM | IC50 (WI-38): 10.4 µM

Cc1ccc2[nH]c3c(c2c1)CC1(C3=O)C(c2ccc(F)cc2)C2CSCN2C12C(=O)Nc1ccccc12 (stereo unspecified)
IC50 (HeLa [5]): 79 µM | IC50 (MCF7 [6]): 19.4 µM

CN1C[C@H](c2ccc(Cl)cc2)[C@]2(NC(=O)NC2=O)C12C(=O)Nc1ccc(Br)cc12 (stereo partly specified)
IC50 at 72 h [7]: 9.2 µM | IC50 (MCF7 [8]): 24.1 µM | IC50 (A549 [9]): 6.6 µM | IC50 at 72 h [10]: 11.9 µM

CN1C(=O)C2(SCC3C(=O)N(CC(=O)NN)N=C(c4ccc(Cl)c(Cl)c4)C32)c2ccccc21 (stereo unspecified)
IC50 (MCF7 [4]): 8.16 µM | IC50 (WI-38): 11.2 µM

N#CC1=C(c2ccccc2)Nc2c(c(-c3cccs3)nn2-c2ccccc2)C12C(=O)Nc1ccccc12 (stereo unspecified)
IC50 (MDA-MB-231 [11]): 6.7 µM

COP1(=O)N(C)N=NC12SC1=CCCCC1=C2C#N (stereo unspecified)
GI50 (MCF7 [12]): 6.35 µM | GI50 (COLO 205): 18.4 µM | GI50 (PC-3): 12.4 µM

CCOP1(=O)N(CC)N=NC12SC1=CCCCC1=C2C#N (stereo unspecified)
GI50 (MCF7 [12]): 5.03 µM | GI50 (COLO 205): 17.8 µM | GI50 (PC-3): 9.97 µM

CC1=CC(=O)C2(C(=O)O1)C(c1ccc(C(C)(C)C)cc1)CC(=O)CC2c1ccc(C(C)(C)C)cc1 (stereo unspecified)
IC50 (K562): 58.6 µM | IC50 (U-937): 43.7 µM

O=C(/C=C/c1ccc(Br)cc1)[C@H]1[C@H](c2ccc(Br)cc2)C2CSCN2[C@]12C(=O)Nc1cc(Br)c(Br)cc12 (stereo partly specified)
IC50 (HepG2 [13]): 50 µM | IC50 (MCF7 [14]): 2.5 µM | IC50 (HCT-116 [15]): 2.2 µM

O=C1CC(c2ccccc2)C2(C(=O)Oc3ccccc3C2=O)C(c2ccccc2)C1 (stereo unspecified)
IC50 (K562): 74 µM | IC50 (U-937): 51.6 µM

CON1c2ccccc2[C@@]2(CN=C(Nc3cc(C(F)(F)F)cc(C(F)(F)F)c3)S2)[C@H]1Nc1cc(C(F)(F)F)cc(C(F)(F)F)c1
IC50 (Caco-2): 19.7 µM | IC50 (HCT-116 [16]): 43.9 µM | IC50 (Jurkat): 2 µM | IC50 (MCF7 [17]): 2 µM | IC50 (MDA-MB-231 [18]): 3.5 µM | IC50 (HeLa [19]): 2.5 µM | IC50 (CCRF-CEM): 1 µM | IC50 (A549 [20]): 2.5 µM

N#Cc1c(N)nc2c(c1-c1ccc(Cl)cc1)SC1(CCCCC1)N2c1ccc(N)cc1
IC50 (MCF7 [21]): 30 µg/mL (≈ 67 µM) | IC50 (HepG2 [22]): 14.3 µg/mL (≈ 31.9 µM)

O=C1CC2(CCN(S(=O)(=O)c3cccc4ccccc34)CC2)Oc2ccccc21
IC50 (MCF7 [23]): 6.02 µM | IC50 (A2780): 0.316 µM | IC50 (HT-29): 0.69 µM

CN1C/C(=C\c2ccc(F)cc2)C(=O)[C@@]2(C1)[C@H](c1ccc(F)cc1)CN(C)[C@]21C(=O)Nc2ccc(Cl)cc21
IC50 (HeLa [24]): 2.75 µM | IC50 (HepG2 [25]): 3.08 µM | IC50 (T47D): 3.1 µM | IC50 (MCF7 [26]): 2.98 µM | IC50 (HCT-116 [27]): 2.74 µM

O=C(c1ccc(F)cc1)C1C(c2ccc(Cl)cc2Cl)C2CSCN2C12C(=O)Nc1ccccc12 (stereo unspecified)
IC50 (HeLa [28]): 11.2 µM | IC50 [29]: 21.2 µM

O=C1NC2(CCNCC2)Nc2ccccc21
inhibition at 10 µM [2]: 100%

Cc1ccc2[nH]c3c(c2c1)CC1(C3=O)C(c2cccc3ccccc23)C2CSCN2C12C(=O)Nc1ccccc12 (stereo unspecified)
IC50 (HeLa [5]): 24.4 µM | IC50 (MCF7 [6]): 32.6 µM
